Measured values: ChEMBL document CHEMBL5352433, “Design, synthesis, and biological evaluation of low-toxic lappaconitine derivatives as potential analgesics” (Eur J Med Chem, 2022)

Assays:
[1] = target: T1, Voltage-gated inwardly rectifying potassium channel KCNH2 (Homo sapiens, UniProt Q12809); assay: Inhibition of hERG expressed in HEK cells assessed as Rb+ efflux ratio at 100 mg/L incubated for 4 mins (reference value: 79.71 to 94.98 %); format: toxicity, cell-based; parameters: scale not given: the % may be the effect or the level left; conditions: at 100 µg/mL
T1 sequence (Q12809 whole entry): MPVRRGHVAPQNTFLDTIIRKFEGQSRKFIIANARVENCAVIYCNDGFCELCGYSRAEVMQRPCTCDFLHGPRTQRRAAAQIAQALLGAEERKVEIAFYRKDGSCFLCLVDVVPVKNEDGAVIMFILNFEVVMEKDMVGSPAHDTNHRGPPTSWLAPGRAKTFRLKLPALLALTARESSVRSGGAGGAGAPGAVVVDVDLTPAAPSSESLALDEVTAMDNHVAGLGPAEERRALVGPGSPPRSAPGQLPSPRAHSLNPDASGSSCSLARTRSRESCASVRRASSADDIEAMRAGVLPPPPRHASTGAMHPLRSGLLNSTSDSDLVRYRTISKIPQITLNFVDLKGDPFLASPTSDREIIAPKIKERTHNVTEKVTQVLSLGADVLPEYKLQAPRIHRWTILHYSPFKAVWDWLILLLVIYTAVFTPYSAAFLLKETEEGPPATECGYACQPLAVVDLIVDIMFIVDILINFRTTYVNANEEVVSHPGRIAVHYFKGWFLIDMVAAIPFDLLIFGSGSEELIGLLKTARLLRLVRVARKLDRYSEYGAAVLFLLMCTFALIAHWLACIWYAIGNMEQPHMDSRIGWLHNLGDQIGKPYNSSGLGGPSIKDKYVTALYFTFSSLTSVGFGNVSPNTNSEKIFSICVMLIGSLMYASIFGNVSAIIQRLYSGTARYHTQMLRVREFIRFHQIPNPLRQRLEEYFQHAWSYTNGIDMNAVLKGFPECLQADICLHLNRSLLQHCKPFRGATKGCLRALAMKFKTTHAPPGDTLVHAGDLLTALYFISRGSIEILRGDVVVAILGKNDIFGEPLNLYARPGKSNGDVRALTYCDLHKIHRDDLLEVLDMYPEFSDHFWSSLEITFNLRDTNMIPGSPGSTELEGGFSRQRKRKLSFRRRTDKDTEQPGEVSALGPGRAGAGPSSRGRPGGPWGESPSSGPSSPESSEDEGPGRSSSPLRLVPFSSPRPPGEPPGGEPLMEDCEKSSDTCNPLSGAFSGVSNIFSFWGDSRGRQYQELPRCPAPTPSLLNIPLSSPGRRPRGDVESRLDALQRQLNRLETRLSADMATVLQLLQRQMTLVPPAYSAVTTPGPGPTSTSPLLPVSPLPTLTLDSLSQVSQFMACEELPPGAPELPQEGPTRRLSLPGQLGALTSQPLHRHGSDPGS

[2] = target: T1, Voltage-gated inwardly rectifying potassium channel KCNH2; assay: Inhibition of hERG expressed in HEK cells assessed as Rb+ efflux ratio at 1 mg/L incubated for 4 mins (reference value: 79.71 to 94.98 %); format: toxicity, cell-based; parameters: scale not given: the % may be the effect or the level left; conditions: at 1 µg/mL
[3] = target: T1, Voltage-gated inwardly rectifying potassium channel KCNH2; assay: Inhibition of hERG expressed in HEK cells assessed as Rb+ efflux ratio at 10 mg/L incubated for 4 mins (reference value: 79.71 to 94.98 %); format: toxicity, cell-based; parameters: scale not given: the % may be the effect or the level left; conditions: at 10 µg/mL
[4] = Acute toxicity in sc dosed Kunming mouse assessed as mortality rate measured after 24 hrs; format: organism-based; conditions: in vivo
Mus musculus [5] = assay: Analgesic activity against acetic acid-induced Kunming writhing mouse model assessed as inhibition of writhing at 3.5 mg/kg, sc pretreated with compound for 15 mins followed by acetic acid addition and measured after 15 mins relative to control; format: functional; conditions: 0.5 h, time 30 min
Mus musculus [6] = assay: Analgesic activity against sc dosed acetic acid-induced Kunming writhing mouse model assessed as inhibition of writhing pretreated with compound for 15 mins followed by acetic acid addition and measured after 15 mins; format: functional; conditions: 0.5 h, time 30 min
Mus musculus [7] = assay: Analgesic activity against acetic acid-induced Kunming writhing mouse model assessed as inhibition of writhing at 10 mg/kg, sc pretreated with compound for 15 mins followed by acetic acid addition and measured after 15 mins relative to control; format: functional; conditions: 0.5 h, time 30 min
[8] = Therapeutic index, ratio of LD50 for acute toxicity in sc dosed Kunming mouse to ratio of ED50 for analgesic activity against sc dosed acetic acid-induced Kunming writhing mouse model; format: organism-based; conditions: in vivo, read-out: TI
[9] = Drug metabolism in sc dosed acetic acid-induced Kunming writhing mouse model assessed as metabolites in urine; format: ADME, organism-based; conditions: in vivo
[10] = Drug metabolism in sc dosed acetic acid-induced Kunming writhing mouse model assessed as metabolites in feces; format: ADME, organism-based; conditions: in vivo

| SMILES | Activity [1] [%] | Activity [2] [%] | Activity [3] [%] | LD50 at 24 h [4] [mg/kg] | ED50 (Mus musculus [6]) [mg/kg] | inhibition in vivo at 10 mg/kg (Mus musculus [7]) [%] | selectivity ratio [8] | other results |
| --- | --- | --- | --- | --- | --- | --- | --- | --- |
| CCN1C[C@]2(OC(=O)c3ccccc3N)CC[C@H](OC)[C@]34C1[C@H](C[C@H]23)[C@@]1(O)C[C@H](OC)[C@H]2C[C@@H]4[C@]1(O)[C@H]2OC | 65.7 | 96.05 | 92.35 | – | – | – | – | – |
| CCN1C[C@]2(OC(=O)c3ccccc3NC(C)=O)CC[C@H](OC)[C@]34C1[C@H](C[C@H]23)[C@@]1(O)C[C@H](OC)[C@H]2C[C@@H]4[C@]1(O)[C@H]2OC | – | – | – | 11.7 | 3.5 | – | – | inhibition in vivo at 3.5 mg/kg (Mus musculus [5]): 56.6% |
| CCN1C[C@]2(OC(=O)c3ccccc3NS(=O)(=O)c3ccccc3[N+](=O)[O-])CC[C@H](OC)[C@]34C1[C@H](C[C@H]23)[C@@]1(O)C[C@H](OC)[C@H]2C[C@@H]4[C@]1(O)[C@H]2OC | – | – | – | – | – | 58.5 | – | – |
| CCN1C[C@]2(OC(=O)c3ccccc3NS(=O)(=O)c3cccs3)CC[C@H](OC)[C@]34C1[C@H](C[C@H]23)[C@@]1(O)C[C@H](OC)[C@H]2C[C@@H]4[C@]1(O)[C@H]2OC | – | – | – | – | – | 1 | – | – |
| CCN1C[C@]2(OC(=O)c3ccccc3NC(=O)c3ccc(OC(C)C)cc3)CC[C@H](OC)[C@]34C1[C@H](C[C@H]23)[C@@]1(O)C[C@H](OC)[C@H]2C[C@@H]4[C@]1(O)[C@H]2OC | – | – | – | 196 | 8.1 | 51.1 | 24.2 | – |
| CCN1C[C@]2(OC(=O)c3ccccc3NS(=O)(=O)c3ccccc3OC)CC[C@H](OC)[C@]34C1[C@H](C[C@H]23)[C@@]1(O)C[C@H](OC)[C@H]2C[C@@H]4[C@]1(O)[C@H]2OC | 50.83 | 80.88 | 65.13 | 300 | 5.5 | 71.2 | 54.5 | Drug metabolism [9]: Metabolite_Detected; Drug metabolism [10]: Metabolite_Detected |
| CCN1C[C@]2(OC(=O)c3ccccc3NS(=O)(=O)c3cccc4cccnc34)CC[C@H](OC)[C@]34C1[C@H](C[C@H]23)[C@@]1(O)C[C@H](OC)[C@H]2C[C@@H]4[C@]1(O)[C@H]2OC | – | – | – | – | – | 42.4 | – | – |
| CCN1C[C@]2(OC(=O)c3ccccc3NS(=O)(=O)c3ccccc3)CC[C@H](OC)[C@]34C1[C@H](C[C@H]23)[C@@]1(O)C[C@H](OC)[C@H]2C[C@@H]4[C@]1(O)[C@H]2OC | 44.12 | 88.87 | 72.11 | > 600 | 6.1 | 84.3 | > 98.3 | Drug metabolism [9]: Metabolite_Detected; Drug metabolism [10]: Metabolite_Detected |
| CCN1C[C@]2(OC(=O)c3ccccc3NS(=O)(=O)c3cccnc3)CC[C@H](OC)[C@]34C1[C@H](C[C@H]23)[C@@]1(O)C[C@H](OC)[C@H]2C[C@@H]4[C@]1(O)[C@H]2OC | – | – | – | – | – | 32.3 | – | – |
| CCN1C[C@]2(OC(=O)c3ccccc3NC(=O)C3CC3)CC[C@H](OC)[C@]34C1[C@H](C[C@H]23)[C@@]1(O)C[C@H](OC)[C@H]2C[C@@H]4[C@]1(O)[C@H]2OC | – | – | – | – | – | – | – | inhibition in vivo at 3.5 mg/kg (Mus musculus [5]): 33.5% |
| CCN1C[C@]2(OC(=O)c3ccccc3NS(=O)(=O)c3cccc4ccccc34)CC[C@H](OC)[C@]34C1[C@H](C[C@H]23)[C@@]1(O)C[C@H](OC)[C@H]2C[C@@H]4[C@]1(O)[C@H]2OC | – | – | – | – | – | 49.3 | – | – |
| CCN1C[C@]2(OC(=O)c3ccccc3NS(=O)(=O)c3cccc([N+](=O)[O-])c3)CC[C@H](OC)[C@]34C1[C@H](C[C@H]23)[C@@]1(O)C[C@H](OC)[C@H]2C[C@@H]4[C@]1(O)[C@H]2OC | – | – | – | – | – | 6.7 | – | – |
| CCN1C[C@]2(OC(=O)c3ccccc3NS(=O)(=O)c3ccc(Cl)s3)CC[C@H](OC)[C@]34C1[C@H](C[C@H]23)[C@@]1(O)C[C@H](OC)[C@H]2C[C@@H]4[C@]1(O)[C@H]2OC | – | – | – | – | – | 31.3 | – | – |
| CCN1C[C@]2(OC(=O)c3ccccc3NC(=O)CC(C)(C)C)CC[C@H](OC)[C@]34C1[C@H](C[C@H]23)[C@@]1(O)C[C@H](OC)[C@H]2C[C@@H]4[C@]1(O)[C@H]2OC | – | – | – | – | – | – | – | inhibition in vivo at 3.5 mg/kg (Mus musculus [5]): 24.9% |
| CCN1C[C@]2(OC(=O)c3ccccc3NS(=O)(=O)c3cccc4c(N(C)C)cccc34)CC[C@H](OC)[C@]34C1[C@H](C[C@H]23)[C@@]1(O)C[C@H](OC)[C@H]2C[C@@H]4[C@]1(O)[C@H]2OC | – | – | – | – | – | 42.5 | – | – |
| C/C=C/C(=O)Nc1ccccc1C(=O)O[C@@]12CC[C@H](OC)[C@]34C([C@H](C[C@H]13)[C@@]1(O)C[C@H](OC)[C@H]3C[C@@H]4[C@]1(O)[C@H]3OC)N(CC)C2 | – | – | – | – | – | – | – | inhibition in vivo at 3.5 mg/kg (Mus musculus [5]): 24.4% |
| CCN1C[C@]2(OC(=O)c3ccccc3NC(=O)c3ccc(OC)cc3)CC[C@H](OC)[C@]34C1[C@H](C[C@H]23)[C@@]1(O)C[C@H](OC)[C@H]2C[C@@H]4[C@]1(O)[C@H]2OC | 69.69 | 77 | 76.58 | 296 | 4.4 | 62.8 | 67.4 | – |
| CCN1C[C@]2(OC(=O)c3ccccc3NS(=O)(=O)c3ccc4ccccc4c3)CC[C@H](OC)[C@]34C1[C@H](C[C@H]23)[C@@]1(O)C[C@H](OC)[C@H]2C[C@@H]4[C@]1(O)[C@H]2OC | – | – | – | – | – | 28.4 | – | – |
| CCOc1ccc(C(=O)Nc2ccccc2C(=O)O[C@@]23CC[C@H](OC)[C@]45C([C@H](C[C@H]24)[C@@]2(O)C[C@H](OC)[C@H]4C[C@@H]5[C@]2(O)[C@H]4OC)N(CC)C3)cc1 | 76.45 | 79.38 | 80.07 | 315 | 6.6 | 62.8 | 47.7 | – |
| CCCOc1ccc(C(=O)Nc2ccccc2C(=O)O[C@@]23CC[C@H](OC)[C@]45C([C@H](C[C@H]24)[C@@]2(O)C[C@H](OC)[C@H]4C[C@@H]5[C@]2(O)[C@H]4OC)N(CC)C3)cc1 | – | – | – | 214 | 10.2 | 48.4 | 20.9 | – |
| CCN1C[C@]2(OC(=O)c3ccccc3NC(=O)c3ccc(N(C)C)cc3)CC[C@H](OC)[C@]34C1[C@H](C[C@H]23)[C@@]1(O)C[C@H](OC)[C@H]2C[C@@H]4[C@]1(O)[C@H]2OC | 84.7 | 87.34 | 85.86 | 300 | 6.2 | 62.1 | 48.5 | Drug metabolism [9]: Metabolite_Detected; Drug metabolism [10]: Metabolite_Detected |
| CCN1C[C@]2(OC(=O)c3ccccc3NS(=O)(=O)c3ccccn3)CC[C@H](OC)[C@]34C1[C@H](C[C@H]23)[C@@]1(O)C[C@H](OC)[C@H]2C[C@@H]4[C@]1(O)[C@H]2OC | 73.6 | 95.97 | 88.42 | > 400 | 4.7 | 71.2 | > 85.1 | Drug metabolism [9]: Metabolite_Detected; Drug metabolism [10]: Metabolite_Detected |
